Data: the supplement of paper PMC4862054

What was measured:
Conditions in all cases: incubation time: 72 h
MFM-223 [1] = experiment: normalised response (% of control), CellTox Green; higher = less cell death (100 = DMSO, 0 = benzethonium chloride kill control)
In short: (§1)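 CellTox Green fluorescence (485/520 nm) and, after 10 min at room temperature, CellTiter-Glo luminescence were read from breast cancer cell lines incubated 72 h in 384-well plates. Cells were seeded as 20 µl suspension onto compound at 5 concentrations in 10-fold steps over a 10,000-fold range chosen per compound. Each plate was normalised to 0.1 % DMSO (100) and a positive kill control (0). Values are normalised signals, one per concentration.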

BT-549 [2] = experiment: as above
In short: as §1

MDA-MB-436 [3] = experiment: as above
In short: as §1

BT-474 [4] = experiment: as above
In short: as §1

MDA-MB-231 [5] = experiment: as above
In short: as §1

HDQ-P1 [6] = experiment: as above
In short: as §1

CAL-148 [7] = experiment: as above
In short: as §1

Hs578T [8] = experiment: as above
In short: as §1

HCC1143 [9] = experiment: as above
In short: as §1

MDA-MB-453 [10] = experiment: as above
In short: as §1

CAL-85-1 [11] = experiment: as above
In short: as §1

CAL-51 [12] = experiment: as above
In short: as §1

DU-4475 [13] = experiment: as above
In short: as §1

CAL-120 [14] = experiment: as above
In short: as §1

HCC1599 [15] = experiment: as above
In short: as §1

MDA-MB-468 [16] = experiment: as above
In short: as §1

HCC1937 [17] = experiment: as above
In short: as §1

MCF-10A [18] = experiment: as above
In short: as §1

MFM-223 [19] = experiment: normalised response (% of control), CellTiter-Glo; higher = more viable cells (100 = DMSO, 0 = benzethonium chloride kill control)
In short: as §1

BT-549 [20] = experiment: as above
In short: as §1

MDA-MB-436 [21] = experiment: as above
In short: as §1

BT-474 [22] = experiment: as above
In short: as §1

MDA-MB-231 [23] = experiment: as above
In short: as §1

HDQ-P1 [24] = experiment: as above
In short: as §1

CAL-148 [25] = experiment: as above
In short: as §1

Hs578T [26] = experiment: as above
In short: as §1

HCC1143 [27] = experiment: as above
In short: as §1

MDA-MB-453 [28] = experiment: as above
In short: as §1

CAL-85-1 [29] = experiment: as above
In short: as §1

SK-BR-3 = experiment: as above
In short: as §1

CAL-51 [30] = experiment: as above
In short: as §1

DU-4475 [31] = experiment: as above
In short: as §1

CAL-120 [32] = experiment: as above
In short: as §1

HCC1599 [33] = experiment: as above
In short: as §1

MDA-MB-468 [34] = experiment: as above
In short: as §1

HCC1937 [35] = experiment: as above
In short: as §1

MCF-10A [36] = experiment: as above
In short: as §1

| Structure (SMILES) | normalised response (MFM-223 [1]) | normalised response (BT-549 [2]) | normalised response (MDA-MB-436 [3]) | normalised response (BT-474 [4]) | normalised response (MDA-MB-231 [5]) | normalised response (HDQ-P1 [6]) | normalised response (CAL-148 [7]) | normalised response (Hs578T [8]) | normalised response (HCC1143 [9]) | normalised response (MDA-MB-453 [10]) | normalised response (CAL-85-1 [11]) | normalised response (CAL-51 [12]) | normalised response (DU-4475 [13]) | normalised response (CAL-120 [14]) | normalised response (HCC1599 [15]) | normalised response (MDA-MB-468 [16]) | normalised response (HCC1937 [17]) | normalised response (MCF-10A [18]) | normalised response (MFM-223 [19]) | normalised response (BT-549 [20]) | normalised response (MDA-MB-436 [21]) | normalised response (BT-474 [22]) | normalised response (MDA-MB-231 [23]) | normalised response (HDQ-P1 [24]) | normalised response (CAL-148 [25]) | normalised response (Hs578T [26]) | normalised response (HCC1143 [27]) | normalised response (MDA-MB-453 [28]) | normalised response (CAL-85-1 [29]) | normalised response (SK-BR-3) | normalised response (CAL-51 [30]) | normalised response (DU-4475 [31]) | normalised response (CAL-120 [32]) | normalised response (HCC1599 [33]) | normalised response (MDA-MB-468 [34]) | normalised response (HCC1937 [35]) | normalised response (MCF-10A [36]) |
| --- | --- | --- | --- | --- | --- | --- | --- | --- | --- | --- | --- | --- | --- | --- | --- | --- | --- | --- | --- | --- | --- | --- | --- | --- | --- | --- | --- | --- | --- | --- | --- | --- | --- | --- | --- | --- | --- |
| O=C(O)c1ccc(-c2c[nH]c3ncc(-c4ccccc4)cc23)cc1C1CCCC1 (100 nM) | 101% | 83.6% | 95.5% | 99.5% | 89.3% | 99% | 101% | 89.5% | 83.7% | 95.8% | 108% | 84.6% | 95.1% | 95% | 98.6% | 108% | 107% | 97.3% | 96.2% | 101% | 89.5% | 93.8% | 97.3% | 96.7% | 88% | 103% | 102% | 97.6% | 101% | 97.2% | 64.1% | 98.2% | 97.9% | 89.5% | 90.6% | 97.1% | 93.1% |
| O=C1CCC(N2C(=O)c3ccccc3C2=O)C(=O)N1 (stereo not drawn) [Thalidomide] (100 nM) | 99.8% | 106% | 97.9% | 102% | 106% | 95.2% | 79.1% | 94.8% | 103% | 104% | 107% | 103% | 101% | 98.8% | 96.6% | 127% | 87.4% | 109% | 95.7% | 98.3% | 101% | 103% | 95.6% | 105% | 97.4% | 94.5% | 95.9% | 101% | 95.6% | 97.7% | 100% | 102% | 95.2% | 99.6% | 93.6% | 98.1% | 98.9% |
| CN(C)/N=N/c1[nH]cnc1C(N)=O [Dacarbazine] (100 nM) | 105% | 96.7% | 100% | 101% | 101% | 105% | 106% | 79.5% | 82.8% | 99.6% | 105% | 110% | 102% | 101% | 101% | 85.4% | 106% | 107% | 105% | 115% | 102% | 96.8% | 107% | 98.5% | 105% | 103% | 112% | 103% | 106% | 107% | 101% | 105% | 101% | 92% | 100% | 102% | 100% |
| N#CCNC(=O)c1ccc(-c2ccnc(Nc3ccc(N4CCOCC4)cc3)n2)cc1 [Momelotinib] (100 nM) | 81.4% | 104% | 104% | 100% | 53.8% | 102% | 97.8% | 93.5% | 78.1% | 101% | 102% | 83% | 97.5% | 98.2% | 89.7% | 168% | 94.6% | 66.3% | 94.8% | 102% | 99.1% | 92.1% | 94.8% | 105% | 94.1% | 102% | 117% | 110% | 101% | 95.9% | 70.4% | 95.9% | 97.2% | 112% | 90% | 97.8% | 85.6% |
| CCC1=C[C@@H]2CN(C1)Cc1c([nH]c3ccccc13)[C@@](C(=O)OC)(c1cc3c(cc1OC)N(C)[C@H]1[C@@](O)(C(=O)OC)[C@H](OC(C)=O)[C@]4(CC)C=CCN5CC[C@]31[C@@H]54)C2 [Vinorelbine] (100 nM) | 59.8% | 80.3% | 90.9% | 76.3% | 71.5% | 93.5% | 67.3% | 49.2% | 85.7% | 83.8% | 51.3% | 28.6% | 101% | 84.8% | 90.6% | 29.7% | 88.4% | -12.8% | 59.8% | 31.6% | 38.8% | 70.2% | 74.9% | 75.8% | 42.8% | 48.1% | 45.6% | 59.7% | 31.1% | 10.4% | 68.2% | 91.7% | 58.1% | 62.8% | 21% | 71.4% | 59.5% |
| Cc1ccc(-n2nc(C(C)(C)C)cc2NC(=O)Nc2ccc(OCCN3CCOCC3)c3ccccc23)cc1 [Doramapimod] (100 nM) | 99.4% | 77.5% | 98.5% | 94.5% | 82.1% | 101% | 100% | 105% | 104% | 98.1% | 85.4% | 101% | 97.7% | 95.8% | 97.4% | 89% | 97% | 93.5% | 91.8% | 106% | 100% | 94.2% | 96.5% | 93% | 79.7% | 98.7% | 97.1% | 99.4% | 92.4% | 90.8% | 99.5% | 93.7% | 99.4% | 93.7% | 89.6% | 89.9% | 85.3% |
| CC(=O)Nc1ccc(C(=O)Nc2ccccc2N)cc1 [Tacedinaline] (10 nM) | 97.2% | 85.9% | 80.4% | 96.6% | 108% | 104% | 95% | 106% | 96.9% | 89.7% | 105% | 83.3% | 101% | 98.8% | 99.9% | 133% | 97.9% | 104% | 101% | 102% | 96.9% | 101% | 98.5% | 96.1% | 105% | 90.1% | 99.7% | 107% | 103% | 95.3% | 86.8% | 99.6% | 102% | 104% | 104% | 94.8% | 101% |
| Cn1c(CCCC(=O)O)nc2cc(N(CCCl)CCCl)ccc21 [Bendamustine] (100 nM) | 105% | 101% | 91.8% | 102% | 102% | 88.7% | 107% | 105% | 110% | 105% | 89.6% | 111% | 103% | 97.4% | 109% | 141% | 88.6% | 73.5% | 106% | 106% | 97.6% | 104% | 104% | 102% | 117% | 103% | 111% | 125% | 97.3% | 108% | 107% | 101% | 103% | 99.1% | 106% | 105% | 108% |
| N[C@@H](CSC(c1ccccc1)(c1ccccc1)c1ccccc1)C(=O)O [S-trityl-L-cysteine] (400 nM) | 102% | 71.8% | 72.6% | 94.5% | 104% | 109% | 80.7% | 79.2% | 111% | 102% | 99.5% | 110% | 97.9% | 97.1% | 101% | 125% | 61.4% | 109% | 103% | 100% | 98.9% | 102% | 101% | 99% | 102% | 97.3% | 102% | 104% | 102% | 93.5% | 105% | 101% | 104% | 112% | 105% | 98.2% | 92.4% |
